PMC12040169 (PLOS Biology, 2025)

Test: in vitro
Conditions: human, hela cells, % viability
`CCOc1ncccc1NC(=O)N(CC1CCOC1)C1CC1` (stereo not drawn) [CBK305077] gave a viability at 28.5 h, 10 µM of 94%.
For `CS(=O)(=O)NC1CCN(CCc2ccc(F)c(F)c2)C1` (stereo not drawn) [CBK305078], the viability at 28.5 h, 10 µM was 95.3%.
Molecule `CC(=O)Nc1cccc(C(=O)N2CCCC2c2ccncc2)c1` (stereo not drawn) [CBK305080] has a viability at 28.5 h, 10 µM of 96.5%.
`CCNC(=O)C1CCCN(Cc2ncc(C)c(OC)c2C)C1` (stereo not drawn) [CBK305081] showed a viability at 28.5 h, 10 µM of 78%.
Molecule `CC(c1ccc(F)c(F)c1)N(C)C(=O)Cn1ncn(C)c1=O` (stereo not drawn) [CBK305083] has a viability at 28.5 h, 10 µM of 80.2%.
`CCC(c1ccccc1)N1CCN(Cc2noc(C)n2)CC1` (stereo not drawn) [CBK305084] showed a viability at 28.5 h, 10 µM of 90.3%.
For `CCN(CC)C(=O)C1CCCN1C(=O)c1ccnc(N(C)C)c1` (stereo not drawn) [CBK305086], the viability at 28.5 h, 10 µM was 99.7%.
Molecule `Cc1cccc(C2(CNC(=O)C3COCCO3)CCCCC2)c1` (stereo not drawn) [CBK305087] has a viability at 28.5 h, 10 µM of 109%.
`CC(NC(=O)N1CCSCC1)c1ccc2c(c1)CC(=O)N2` (stereo not drawn) [CBK305093] gave a viability at 28.5 h, 10 µM of 96.7%.
For `Cn1cc(CCC(=O)N2CCN(Cc3ccccn3)CC2)cn1` [CBK305094], the viability at 28.5 h, 10 µM was 113%.
`COc1ccc(CCN2CCCCC2Cn2cncn2)cc1` (stereo not drawn) [CBK305095] gave a viability at 28.5 h, 10 µM of 108%.
`COc1ccccc1C(C)N(C)CCC(=O)Nc1cc(C)on1` (stereo not drawn) [CBK305098] gave a viability at 28.5 h, 10 µM of 94.1%.
Work on `Cn1nccc1CNCc1cc(Br)ccc1Cl` [CBK305100] yielded a viability at 28.5 h, 10 µM of 88.3%.
With `CC(C)(C)OC(=O)N1CCCC(C(=O)NCc2ccco2)C1` (stereo not drawn) [CBK305102] the viability at 28.5 h, 10 µM was 99.1%.
With `CCc1nc(CNc2ccc(NC(C)=O)cc2Cl)cs1` [CBK305103] the viability at 28.5 h, 10 µM was 102%.
Molecule `CCc1ccc(CNC2CCN(Cc3cscn3)CC2)o1` [CBK305104] has a viability at 28.5 h, 10 µM of 92.7%.
`Cc1n[nH]c(C)c1C1COCCN1C(=O)c1cccc(F)c1` (stereo not drawn) [CBK305105] gave a viability at 28.5 h, 10 µM of 86.9%.
In the case of `OC1CC(c2cc(F)ccc2F)N(CCc2ccncc2)C1` (stereo not drawn) [CBK305106], the viability at 28.5 h, 10 µM is reported as 87.2%.
`Cc1cccc(-c2nc(CN(C)CC(=O)NC(C)C)no2)c1` [CBK305109] showed a viability at 28.5 h, 10 µM of 115%.
With `COCCc1nsc(N2CCCC(c3nccs3)C2)n1` (stereo not drawn) [CBK305110] the viability at 28.5 h, 10 µM was 92%.
Work on `CCC(CC)n1nc(C(=O)NC2(C#N)CCSC2)cc1C` (stereo not drawn) [CBK305111] yielded a viability at 28.5 h, 10 µM of 103%.
In the case of `O=C(CN1CCCC1Cn1cncn1)NCCc1ccsc1` (stereo not drawn) [CBK305113], the viability at 28.5 h, 10 µM is reported as 85.2%.
In the case of `CCOC(=O)c1cnn(C2CCCN(Cc3cccn3C)C2)c1` (stereo not drawn) [CBK305114], the viability at 28.5 h, 10 µM is reported as 84.3%.
`NC(=O)c1cccc(CNC2CCCN(c3cccnn3)C2)c1` (stereo not drawn) [CBK305115] gave a viability at 28.5 h, 10 µM of 103%.
With `COCc1nc2n(n1)CC(NC1CCCc3sccc31)CC2` (stereo not drawn) [CBK305116] the viability at 28.5 h, 10 µM was 90.1%.
`CC(C)c1nc(NCc2nnc3n2CCC3)nc(N(C)C)n1` [CBK305117] gave a viability at 28.5 h, 10 µM of 99.5%.
`CCc1nc(C(C)NCC(=O)Nc2cc(C)nn2C)cs1` (stereo not drawn) [CBK305118] showed a viability at 28.5 h, 10 µM of 97.8%.
Molecule `Cc1nc(CNCc2c(C(C)C)nn(C)c2N(C)C)cs1` [CBK305119] has a viability at 28.5 h, 10 µM of 109%.
Work on `Cc1noc(C2COCCN2C(=O)c2cc(Cl)cn2C)n1` (stereo not drawn) [CBK305120] yielded a viability at 28.5 h, 10 µM of 98.8%.
In the case of `CCOC(=O)c1cnn(C2CCCN(Cc3cccs3)C2)c1` (stereo not drawn) [CBK305121], the viability at 28.5 h, 10 µM is reported as 99.5%.
`Cc1nnc(CN(C)C2CCN(CCc3cccs3)C2)n1C` (stereo not drawn) [CBK305126] showed a viability at 28.5 h, 10 µM of 97.8%.
`CC(NCC(=O)NC1(C#N)CCCCC1)C(C)n1cccn1` (stereo not drawn) [CBK305129] showed a viability at 28.5 h, 10 µM of 91.4%.
With `COCCn1c(SC2CCN(C)C2=O)nc2ccccc21` (stereo not drawn) [CBK305131] the viability at 28.5 h, 10 µM was 97.9%.
`CC(C)c1nn(C)c(N(C)C)c1CNCCc1cnn(C)c1` [CBK305135] showed a viability at 28.5 h, 10 µM of 108%.
For `Cc1cccc(CCNC(=O)N2CCC(Cc3cnn(C)c3)C2)c1` (stereo not drawn) [CBK305137], the viability at 28.5 h, 10 µM was 110%.
For `COc1ccc(Br)c(C(=O)N(C)Cc2cnn(C)c2)c1` [CBK305142], the viability at 28.5 h, 10 µM was 97.7%.
`CC(=O)c1cccc(NC(=O)CN2CCCC2c2cccs2)c1` (stereo not drawn) [CBK305143] showed a viability at 28.5 h, 10 µM of 109%.
For `CCN(C(C)COC)S(=O)(=O)c1cccc(Cl)c1Cl` (stereo not drawn) [CBK305146], the viability at 28.5 h, 10 µM was 98.4%.
Work on `CCCCCCN(CCN1CCOCC1)C(=O)Nc1cc(C)on1` [CBK305147] yielded a viability at 28.5 h, 10 µM of 84.7%.
Molecule `O=C(NCCN1CCCCC1)C1CC(=O)N(c2ccccc2F)C1` (stereo not drawn) [CBK305148] has a viability at 28.5 h, 10 µM of 86.8%.
In the case of `COc1ccnc(N2CCCN(Cc3ncc(Cl)n3C)CC2)n1` [CBK305152], the viability at 28.5 h, 10 µM is reported as 111%.
`Cn1cc(CNCC2CCN(CCO)CC2)c(-c2cccnc2)n1` [CBK305153] showed a viability at 28.5 h, 10 µM of 91.2%.
Molecule `O=C(CC1OCCc2ccsc21)N1CCCC(n2cccn2)C1` (stereo not drawn) [CBK305154] has a viability at 28.5 h, 10 µM of 96.7%.
In the case of `CC(C(=O)NC1(C#N)CCCCC1)N1CCOC(CN(C)C)C1` (stereo not drawn) [CBK305155], the viability at 28.5 h, 10 µM is reported as 88.6%.
Molecule `COCCn1cc(C(=O)N2CCOC3CCCC32)c2ccccc21` (stereo not drawn) [CBK305156] has a viability at 28.5 h, 10 µM of 86.1%.
`CCC(CCO)CNc1ncnc2ccc(S(C)(=O)=O)cc12` (stereo not drawn) [CBK305157] showed a viability at 28.5 h, 10 µM of 84%.
`CC(=O)Nc1cccc(C(=O)N2CCN(CC3CCCO3)CC2)c1` (stereo not drawn) [CBK305158] showed a viability at 28.5 h, 10 µM of 96%.
For `N#Cc1ccc(N2CCCC(N3CCNC3=O)C2)c(C(F)(F)F)c1` (stereo not drawn) [CBK305162], the viability at 28.5 h, 10 µM was 84.9%.
In the case of `CC(Sc1nc2ccc(Cl)cc2o1)C(=O)N1CCOCC1` (stereo not drawn) [CBK305164], the viability at 28.5 h, 10 µM is reported as 92.1%.
For `COCC(O)CN(C)c1nc(-c2ccncc2)nc2ccccc12` (stereo not drawn) [CBK305170], the viability at 28.5 h, 10 µM was 78.7%.
Work on `Cc1nnc(C(C)N2CCN(Cc3noc(C(C)(C)C)n3)CC2)o1` (stereo not drawn) [CBK305171] yielded a viability at 28.5 h, 10 µM of 85.7%.
`CCC(NC(=O)Nc1ccc(N2CCOCC2)nc1)c1cnn(CC)c1` (stereo not drawn) [CBK305172] gave a viability at 28.5 h, 10 µM of 90.6%.
Molecule `Cn1cc(CNS(=O)(=O)c2ccc(F)c(Br)c2)cn1` [CBK305174] has a viability at 28.5 h, 10 µM of 92.5%.
Molecule `COCCOCC(C)NC(=O)COc1nn(C)c2nc(C)cc(C)c12` (stereo not drawn) [CBK305177] has a viability at 28.5 h, 10 µM of 105%.
Molecule `CS(=O)(=O)CCOCCNC(=O)c1cc(Br)cnc1Cl` [CBK305178] has a viability at 28.5 h, 10 µM of 86.4%.
Work on `CCc1nc(C2CCCN2c2ncc(C#N)cc2Cl)no1` (stereo not drawn) [CBK305183] yielded a viability at 28.5 h, 10 µM of 91.1%.
`c1csc(N2CCN(c3nccn4cnnc34)CC2)n1` [CBK305185] showed a viability at 28.5 h, 10 µM of 103%.
With `CCNS(=O)(=O)c1ccc2c(c1)N(Cc1nc(C)c(C)o1)CC2` [CBK305189] the viability at 28.5 h, 10 µM was 51.5%.
In the case of `Cc1ccnc(NCC2CCN(c3cc(=O)n4oc(C)cc4n3)C2)c1` (stereo not drawn) [CBK305191], the viability at 28.5 h, 10 µM is reported as 84.6%.
`CC(=O)c1cccc(NC(=O)N(CCO)C2CCCc3ccccc32)c1` (stereo not drawn) [CBK305195] showed a viability at 28.5 h, 10 µM of 83%.
In the case of `Cc1cc(C)n2nc(C(=O)N3CCC(C)CC3c3ccco3)nc2n1` (stereo not drawn) [CBK305196], the viability at 28.5 h, 10 µM is reported as 84.8%.
For `CC(C)(C)c1n[nH]c(C2CN(C(=O)CCCn3cccn3)CCO2)n1` (stereo not drawn) [CBK305198], the viability at 28.5 h, 10 µM was 88.1%.
In the case of `Cn1ccc(C(=O)N2CCOC(c3nc(C(C)(C)C)n[nH]3)C2)cc1=O` (stereo not drawn) [CBK305201], the viability at 28.5 h, 10 µM is reported as 106%.
Work on `CCc1nc(C)c(C(C)N(C)CC(=O)NCc2ccco2)s1` (stereo not drawn) [CBK305203] yielded a viability at 28.5 h, 10 µM of 86.6%.
Work on `CC(C)(C)c1n[nH]c(C2CN(C(=O)CCc3ccco3)CCO2)n1` (stereo not drawn) [CBK305204] yielded a viability at 28.5 h, 10 µM of 81.5%.
Work on `CCn1ncc2c1CCCC2NC1CCN(CC(F)(F)F)C1=O` (stereo not drawn) [CBK305206] yielded a viability at 28.5 h, 10 µM of 89.5%.
Work on `COCCn1c(SCc2c(C)nc3ccccn23)nc(C)c1C` [CBK305212] yielded a viability at 28.5 h, 10 µM of 80.1%.
In the case of `CCc1nnc(CN2CCCC(c3cc(C(N)=O)[nH]n3)C2)o1` (stereo not drawn) [CBK305213], the viability at 28.5 h, 10 µM is reported as 74.5%.
For `CC(CC(=O)N1CCOC(c2nc(C(C)(C)C)n[nH]2)C1)n1cccc1` (stereo not drawn) [CBK305214], the viability at 28.5 h, 10 µM was 82.8%.
